{"source": "patent US6537972B1", "about": "“Compositions and methods for inhibiting human immunodeficiency virus infection by down-regulating human cellular genes” (Subsidiary No. 3., Inc., priority 1997, dated 2003)", "key": {"HIV-1SF33": {"system": "HIV-1SF33", "assay": "Infection of freshly isolated human PBLs with HIV-1SF33 in the presence of mofarotene (CD3-gated flow cytometry)", "assay_type": "cell-based", "conditions": "for % CD4+ in T cell population / % p24+ in CD4+ T population: HIV +, HIV-1SF33 TCID50 1000", "description": "(§1) Human peripheral blood leukocytes (PBLs) were isolated using Ficoll-Hypaque density gradient separation. Cells were washed twice and resuspended in RPMI+10% FBS+2% human AB serum+penicillin/streptomycin/glutamine+100 Units/ml of IL-2 at a concentration of 0.5×10^6 cells/ml. PBLs were then activated with phytohemagglutinin at 0.5 μg/ml and placed in a humidified incubator at 37° C./[…]. After two days of activation, 10^6 cells were infected with HIV-1SF33 at TCID50 of 1000, in the presence of various concentrations of mofarotene: 0 μM, 1 μM, 0.5 μM, 0.1 μM, and 0.05 μM. A separate set of uninfected samples under identical concentrations of mofarotene were also maintained as controls. The samples were analyzed by flow cytometry at day 4 and day 6 post infection. The cells were gated for CD3 expression (for T cells). Then the expression of CD4 and viral p24 and CD4 was examined by bivariate dot plot."}, "[1]": {"system": "human peripheral blood leukocytes (CD3+ T cells)", "assay": "Uninfected human PBLs under mofarotene (control samples, CD3-gated flow cytometry)", "assay_type": "cell-based", "conditions": "for % CD4+ in T cell population / % p24+ in CD4+ T population: HIV −, human PBLs; for % CD4+ in T cell population: CD3+ gated", "description": "as §1"}, "[2]": {"system": "latent HIV provirus in OM10.1 cells", "assay": "Inhibition of TNF-α induction of latent HIV provirus in OM10.1 cells (CD4 / p24 by flow cytometry)", "assay_type": "cell-based, HIV-1", "description": "OM10.1 cells were cultured in RPMI 1640 glucose-free media prior to and during incubation with NADH dehydrogenase inhibitors and TNF-α induction. The inhibitors were added to the cells followed by TNF-α induction 1-2 hours later. The expression of CD4 by the cells was assessed by anti-CD4 antibody staining and flow cytometry after 24 hour incubation at 37° C."}, "OM10.1 cells": {"system": "OM10.1 cells", "assay_type": "cell-based", "conditions": "human, 24 h, 100 nM"}, "[3]": {"conditions": "mofarotene 0.05 μM, human PBLs, day 6"}, "[4]": {"conditions": "mofarotene 0.1 μM, human PBLs, day 6"}, "[5]": {"conditions": "mofarotene 0.5 μM, human PBLs, day 6"}, "[6]": {"conditions": "mofarotene 1.0 μM, human PBLs, day 6"}, "[7]": {"conditions": "mofarotene 1.0 μM, human PBLs, day 6, listed as mofarotene"}}, "data": [{"smiles": "C/C(=C\\c1ccc(OCCN2CCOCC2)cc1)c1ccc2c(c1)C(C)(C)CCC2(C)C", "note": "[Mofarotene]", "values": [{"measurement": "depletion of CD4+ T cells by HIV infection", "setting": "HIV-1SF33; 1 μM, day 6, human PBLs", "result": "inhibited the depletion of CD4^+ T cells"}, {"measurement": "% CD4+ in T cell population", "setting": "HIV-1SF33; [3]", "result": 18, "unit": "%"}, {"measurement": "% p24+ in CD4+ T population", "setting": "HIV-1SF33; [3]", "result": 20.5, "unit": "%"}, {"measurement": "% CD4+ in T cell population", "setting": "HIV-1SF33; [4]", "result": 28, "unit": "%"}, {"measurement": "% p24+ in CD4+ T population", "setting": "HIV-1SF33; [4]", "result": 11.4, "unit": "%"}, {"measurement": "% CD4+ in T cell population", "setting": "HIV-1SF33; [5]", "result": 24, "unit": "%"}, {"measurement": "% p24+ in CD4+ T population", "setting": "HIV-1SF33; [5]", "result": 12.5, "unit": "%"}, {"measurement": "% CD4+ in T cell population", "setting": "HIV-1SF33; [6]", "result": 25, "unit": "%"}, {"measurement": "% p24+ in CD4+ T population", "setting": "HIV-1SF33; [6]", "result": 10, "unit": "%"}, {"measurement": "% CD4+ in T cell population", "setting": "HIV-1SF33; [7]", "result": "~25", "unit": "%"}, {"measurement": "% p24+ in CD4+ T population", "setting": "HIV-1SF33; [7]", "result": 10, "unit": "%"}, {"measurement": "difference between HIV-infected PBLs with or without mofarotene", "setting": "HIV-1SF33; day 4 post-infection", "result": "little detectable difference"}, {"measurement": "% CD4+ in T cell population", "setting": "[1]; mofarotene 0.05 μM, day 6", "result": 33, "unit": "%"}, {"measurement": "% p24+ in CD4+ T population", "setting": "[1]; mofarotene 0.05 μM, day 6", "result": 0, "unit": "%"}, {"measurement": "% CD4+ in T cell population", "setting": "[1]; mofarotene 0.1 μM, day 6", "result": 34, "unit": "%"}, {"measurement": "% p24+ in CD4+ T population", "setting": "[1]; mofarotene 0.1 μM, day 6", "result": 0, "unit": "%"}, {"measurement": "% CD4+ in T cell population", "setting": "[1]; mofarotene 0.5 μM, day 6", "result": 34, "unit": "%"}, {"measurement": "% p24+ in CD4+ T population", "setting": "[1]; mofarotene 0.5 μM, day 6", "result": 0, "unit": "%"}, {"measurement": "% CD4+ in T cell population", "setting": "[1]; mofarotene 1.0 μM, day 6", "result": 36, "unit": "%"}, {"measurement": "% p24+ in CD4+ T population", "setting": "[1]; mofarotene 1.0 μM, day 6", "result": 0, "unit": "%"}, {"measurement": "percentage of CD4+ T cells, compound alone", "setting": "[1]; day 4, uninfected samples", "result": "did not significantly alter"}, {"measurement": "expression level of CD3 on the cell surface", "setting": "[1]; day 6", "result": "did not alter"}, {"measurement": "increase of the percentage of CD4+ T cells in uninfected samples, compound alone", "setting": "[1]; day 6, effect called minimal", "result": "up to 4%"}, {"measurement": "cells that retained CD4 expression", "setting": "[2]; 100 nM, TNF-α-induced OM10.1 cells", "result": 80, "unit": "%"}, {"measurement": "induction of latent HIV provirus in OM10.1 cells (retention of CD4 expression)", "setting": "[2]; TNF-α-induced OM10.1 cells, 24 hour incubation, FIG. 25, 26", "result": "inhibited HIV-1 induction at even lower concentrations"}, {"measurement": "intracellular p24 levels in treated cells", "setting": "[2]; compared with untreated controls", "result": "suppressed intracellular p24 levels"}, {"measurement": "cells that remained viable", "setting": "OM10.1 cells", "result": "greater than 80%"}]}]}
